Results from a melting point compilation (Tetko et al.; mined from patent text by program, amines drawn as free bases though some values may be those of a salt).

| melting point [°C] | SMILES |
| --- | --- |
| > 255 | O=C(O)c1ccc(NC(=O)C(F)(F)F)nc1 |
| 254 to 255 | Nc1c(N=O)c(=O)n(CC2CCCC2)c(=O)n1CC1CCCC1 |
| 188 to 189 | CCC1NC(c2cc(Cl)nc(Cl)c2)=NC(=O)C1C(=O)OC (centres undefined) |
| 108 to 109 | CCS(=O)(=O)CCC(=O)NCC(=O)N1Cc2ccccc2Oc2ccc(Cl)cc21 |
| 122 to 123 | CC[C@@H]1C(=O)N(Cc2ccc(OC)cc2OC)[C@H]1C(=O)O (relative stereo) |
| 142 to 143 | CC(C#CC1CC1)N(O)C(N)=O (centres undefined) |
| 120 | COc1ccc(Oc2cccc(NC(=O)c3ccn4c3CSC4c3cccnc3)c2)cc1 (centres undefined) |
| 156 to 158 | O=C(O)CS(=O)(=O)Oc1cccc(-c2cn3c(n2)sc2ccccc23)c1 |
| 238 | Cn1cc(-c2cc(-c3ccc4[nH]ccc4c3)ccn2)n(-c2ccc(C(C)(C)C#N)cc2)c1=O |
| 270 | Cc1cc(-c2nnc3c4ccccc4c(OCc4ccnn4C)nn23)no1 |
| 146 to 148 | CC(C)CC(NC(=O)Cc1ccc(NC(=O)Nc2ccccc2)cc1)c1ncc(CCC(=O)O)s1 (centres undefined) |
| 240 to 241 | COC(=O)c1c(C(=O)OC)c2n(c1C)Cc1c(c3ccccc3n1C)C2 |
| 91 | CN(C)c1ccc(C2=CCC(C)(C)c3cc(C(O)C#Cc4ccc(C(=O)O)cc4)ccc32)cc1 (centres undefined) |
| 201 | Cn1cnnc1C(O)(c1ccc(I)cc1)c1ccc2c(c1)C(c1cccc(Cl)c1)Nc1nnnn1-2 (centres undefined) |
| 150 to 152 | COC(=O)[C@H](Cc1ccc([N+](=O)[O-])cc1)NC(=S)C1(CCCCS(C)(=O)=O)CCC1 |
| 100 to 103 | CN1C(=O)CCC2(C)c3ccc(Sc4ccccc4F)cc3CCC12 (single isomer, unassigned; (+)) |
| 161 to 168 | N#CC1=Nc2cc(Cl)ccc2Oc2ccccc21 |
| 91 to 92 | CC(N=[N+]=[N-])C(=O)c1nc(C(C)(C)C)c(O)c(C(C)(C)C)n1 (centres undefined) |
| 194 to 195 | CN(C)C(=O)N1Cc2c(-c3noc(C4CC4)n3)ncn2-c2cccc(F)c21 |
| 106 | CNc1cc(NC)cc(C(O)CS(C)(=O)=O)c1 (centres undefined) |
| 181 to 183 | COc1ccc([N+](=O)[O-])c2c1OCC(C(=O)O)C2 (centres undefined) |
| 107 to 109 | COC(=O)C1=C(C)NC(C)=CC1c1ccccc1OCc1ccc(C)cc1 (centres undefined) |

| melting point [°C] | SMILES |
| --- | --- |
| 148 to 162 | CCCCC1(CCCC)CS(=O)(=O)c2ccc(N(C)C)cc2[C@@H](c2ccc(OCCCCCN(CC(=O)O)CC(=O)O)cc2)[C@H]1O |
| 155 to 156 | CCOC(=O)Cc1ccc(NC(=O)C(COS(C)(=O)=O)NS(=O)(=O)c2ccc(Br)cc2)cc1 (racemic) |
| 168 to 170 | COc1ccc2c(c1)cc(Cc1cc3cccc(OC)c3n1S(=O)(=O)c1ccccc1)n2S(=O)(=O)c1ccccc1 |
| 167 to 168 | CC1CC1n1cc(C(=O)O)c(=O)c2cc(F)c(F)c(F)c21 (centres undefined) |
| 132 | Cc1noc(NS(=O)(=O)c2ccc(-c3ccc(C(F)(F)F)cc3)s2)c1Br |
| 176 to 178 | CCCCOC(=O)Cc1cc2c(s1)CCN(C(=O)[C@H](Cc1ccc(O)cc1)NC(=O)c1ccc(C(=N)N)cc1)C2 |
| 68 to 70 | O=c1c2c(oc3ccccc13)C=C2 |
| 88 to 94 | C#CCNC(NCCSCc1[nH]cnc1C)=C(C#N)C(N)=O |
| > 330 | O=C1Nc2cc(Cl)ccc2C(=O)C1c1ccncc1 (centres undefined) |
| 252 | Cc1cccc(-n2nc(C)c3c(=O)c4ccccc4[nH]c32)n1 |
| 91 to 92 | CON=C(Cl)c1ccccc1OCc1ccc(Cl)cc1Cl |
| 56 to 60 | CCOC(=O)CN(C)C(=O)CC1=C(n2nc(-c3c(-c4ccccc4)nn4ccccc34)ccc2=O)CCCC1 |
| 196 to 198 | O=C(NCCN1CCOCC1)c1nnc2ccccc2c1O |
| > 240 | O=c1ccc(S(=O)(=O)c2oc3ccc(Cl)cc3c2-c2ccccc2)n[nH]1 |
| 105 to 107 | CCOCC(=NO)C(C)(C)NCC(Cn1ccnc1[N+](=O)[O-])ONC(C)(C)C(CCn1ccnc1[N+](=O)[O-])=NO (centres undefined) |
| 117 to 121 | CC(NC(=S)N1CCc2c([nH]c3ccccc23)C1c1ccc2c(c1)OCO2)c1ccccc1 (centres undefined) |
| 250 to 251 | NS(=O)(=O)c1cc(C(=O)O)cc(OCc2ccccc2)c1Cc1ccccc1 |
| 50 to 52 | [N-]=[N+]=NCC1Cc2cc(Cl)cc(-c3ccsc3)c2O1 (centres undefined) |
| 124 | CC(C)c1ccc(S(=O)(=O)Nc2ncc(C(F)(F)F)cc2I)cc1 |
| 160 | COCc1c(C#CBr)ncc2[nH]c3cccc(OCc4ccccc4)c3c12 |
| 227 to 228 | Cn1c(COc2ccc(CC3SC(=O)NC3=O)cc2)nc2ccc(Oc3ccc(NC(=O)C4CCCC4)cc3)cc21 (centres undefined) |
| 107 to 108 | C=CCOc1ccc2c(C)cc(=O)oc2c1C |

| melting point [°C] | SMILES |
| --- | --- |
| 214 to 217 | Cc1cc2c(cc1C(F)(F)F)NC(=O)CC(c1cccc(-c3nc(CO)sc3C)c1)=N2 |
| 135 to 137 | CC(C)(C)OC(=O)NC1COCCCC=CC2CC2(C(=O)NS(=O)(=O)C2CC2)NC(=O)C2CC(OC(=O)c3ccccc3)CN2C1=O (centres undefined) |
| > 260 | O=C(Nc1ccc(OCCO)cc1)c1ccc(N2CCNCC2)cc1 |
| 99 to 102 | O=C(c1ccc(F)cc1)C1CCN(CC2CCc3onc(-c4ccccc4F)c3C2=O)CC1 (centres undefined) |
| 231 to 233 | Nc1c(-c2ccc(Br)cc2)nc2ccc(F)cc2c1C(=O)O |
| 196 to 197 | COC(=O)C1=C(C)NC(C)=C(C(=O)O)C1c1cccc([N+](=O)[O-])c1 (centres undefined) |
| 114 | CCOC(=O)c1c(-c2ccccc2)nc2c(C(F)(F)F)cccc2c1O |
| 150 to 151 | CC(=O)NC1C(O)OC(CO)C(O)C1OC(C)C(=O)NC(C)C(=O)NC(CCC(=O)O)C(N)=O (centres undefined) |
| 167 to 168 | NS(=O)(=O)c1cc(Cc2ccccc2)c(O)c2ccccc12 |
| 140 | COc1cc2c(cc1I)CCC2=O |
| 190 | O=C(O)Cc1cccc2c(-c3ccccc3Cl)nccc12 |
| 185 to 186 | O=C(Nc1c(C(O)(C(F)(F)F)C(F)(F)F)ccc2ccccc12)C1CCC1 |
| 135 to 141 | COc1ccc2[nH]c3c(c2c1)CC(OC(=O)c1ccccc1)CC3 (centres undefined) |
| 62 to 64 | CCCc1c(OCCCCCC(=O)O)ccc(C(C)=O)c1O |
| 243 to 245 | CSc1ncc2cc(C)c(=O)[nH]c2n1 |
| 72 to 73 | CCc1cc2c(-c3ccccc3Cl)c([N+](=O)[O-])cnc2s1 |
| 137 to 142 | CC(CO)Oc1cc(Oc2ccc(S(C)(=O)=O)cc2)cc2cc(C3=NCC(CC(N)=O)S3)[nH]c12 (centres undefined) |
| 182 to 183 | COC1=CC(=O)c2ccccc2C1=O |
| 147 to 148 | Cc1nnc(-c2ccc3occ(-c4cnn(C)c4)c3c2)o1 |
| 223 to 225 | O=C(O)c1cc(-n2c(-c3ccccc3)cc3c2CCc2ccccc2-3)ccc1O |
| 184 to 186 | CC(O)(c1ccc(F)cc1)C1CCNCC1 (centres undefined) |
| 123 to 125 | CN(C)Cc1nc2cccnc2[nH]1 |

| melting point [°C] | SMILES |
| --- | --- |
| 209 to 210 | Cc1c(NC(=O)CC(C)(C)C)c(C)c2c(c1-c1cccc([N+](=O)[O-])c1)OCC2c1ccc(C(C)C)cc1 (centres undefined) |
| 208 to 209 | COc1cc(OC)c(-c2cc3ccccc3s2)cc1/C=C/C(=O)c1ccc(C(=O)NC(=O)C(C)C)cc1 |
| 141 | CCOC(=O)Cc1cccc2c(-c3ccccc3)nccc12 |
| 133 to 134 | O=C(CCC(=O)N1CCC(c2ccc(Cl)cc2)CC1)c1ccc2c(c1)CNC2 |
| 81 to 82 | COC1=C(c2ccccc2CSc2nc3ccccc3s2)C(=O)OC1 |
| 187 to 188 | COC(=O)c1ccc(C(F)(F)F)nc1S(N)(=O)=O |
| 58.5 to 59.5 | CCOC(=O)c1c(OC)cc(C(F)(F)F)nc1C(F)(F)F |
| 154 to 155 | O=S(=O)(Nc1ccccc1OCc1ccc2ccccc2n1)c1cccc(C(F)(F)F)c1 |
| 120 to 125 | C=CCn1c(-c2cccnc2)n[nH]c1=O |
| 230 to 232 | COc1ccc(-n2c(=O)c(C)nc3ccccc32)cc1 |
| > 300 | O=C(O)c1ccc(C=Cc2cc(=O)cc(-c3ccccc3)o2)cc1 |
| 272 | c1ccc(-c2cc(-c3nc(-c4ccccc4)nc(-c4ccccc4)n3)c(-c3nccc4ccccc34)c(-c3cc4ccccc4c4ccccc34)c2)cc1 |
| 179 to 180 | Fc1c(F)c(C(F)(F)F)c(F)c(F)c1Nc1ccc(-c2ccc(Nc3c(F)c(F)c(C(F)(F)F)c(F)c3F)cc2)cc1 |
| 265 to 266 | O=C(Nc1ccccc1NS(=O)(=O)c1ccc([N+](=O)[O-])cc1)c1ccc(F)cc1 |
| 129 to 130 | CCOP(=O)(/C=C/c1cn(-c2ccccc2)nc1OCc1ccc(OCc2nc(-c3ccc(C(=O)OC)cc3)oc2C)c(OC)c1)OCC |
| 233 to 234 | COc1ccc(-c2cnc3c(n2)c(C#N)cn3S(=O)(=O)c2ccc(C)cc2)cc1OC |
| 126 to 128 | CCOC(=O)C1=C(C)NC(C#N)=C(C(=O)OCC)C1c1ccccc1[N+](=O)[O-] (centres undefined) |
| 258 to 260 | Cc1[nH]c(=O)ccc1C(=O)c1ccco1 |
| 50 to 52 | CNS(=O)(=O)NC(C)C |
| 151 to 152 | c1ccc(CCN2CCC(c3n[nH]c4c3CCc3ccccc3-4)CC2)cc1 |
| 159 | COc1cc2c(cc1O)OCC(c1ccc(O)cc1)C2 (centres undefined) |
| 162 to 165 | COc1cccc([C@H]2O[C@H](CC(=O)Nc3cc(CCC(=O)O)ccc3OCCCc3ccccc3)C(=O)N(CC(C)(C)CO)c3ccc(Cl)cc32)c1OC |

| SMILES | melting point [°C] |
| --- | --- |
| Cc1ccc(C#CC2(O)CN3CCC2CC3)nc1 (centres undefined) | 176 to 180 |
| CC(C)CC1N=C(c2ccccc2)c2cc(Cl)ccc2N=C1NN (centres undefined) | 165 to 168 |
| CN1C=CCC(C(=O)OC2CCC3C4CCC5=CC(=O)CCC5(C)C4CCC23C)=C1 (centres undefined) | 172 to 175 |
| CN1C(=O)[C@H](NC(=O)/C=C/c2ccc([N+](=O)[O-])cc2)N=C(c2ccccc2)c2ccccc21 | 165 to 166 |
| O=C(Nc1cccc(Cl)c1)N1CCNC1=N[N+](=O)[O-] | 214 to 216 |
| O=C1CN=C(c2ccccc2Cl)c2ccccc2N1 | 109 to 111 |
